Test results published in patent US8575197B2, “Pyrolinone derivative and pharmaceutical composition comprising the same” (Shionogi & Co., Ltd., priority 2008, dated 2013).

These molecules were tested against human P2X3 receptor (Homo sapiens (Human), UniProt P56373) (assay: P2X3 receptor inhibition, ATP-evoked Fluo-3 calcium fluorescence (FDSS 3000)). Conditions: C6BU-1 cell transfected with human P2X3 receptor gene; ATP-evoked Fluo-3 fluorescence.
Assay type: cell-based
Method in brief: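 C6BU-1 cells stably transfected with human P2X3, loaded with 4 μM Fluo-3-AM for 1 h at 37 °C in HEPES buffer pH 7.5 with probenecid. Compound added 5 min before 40 nM ATP solution; fluorescence followed 3 min. IC50 from ratio of peak post-ATP to baseline fluorescence.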

human P2X3 receptor, sequence (P56373 whole entry): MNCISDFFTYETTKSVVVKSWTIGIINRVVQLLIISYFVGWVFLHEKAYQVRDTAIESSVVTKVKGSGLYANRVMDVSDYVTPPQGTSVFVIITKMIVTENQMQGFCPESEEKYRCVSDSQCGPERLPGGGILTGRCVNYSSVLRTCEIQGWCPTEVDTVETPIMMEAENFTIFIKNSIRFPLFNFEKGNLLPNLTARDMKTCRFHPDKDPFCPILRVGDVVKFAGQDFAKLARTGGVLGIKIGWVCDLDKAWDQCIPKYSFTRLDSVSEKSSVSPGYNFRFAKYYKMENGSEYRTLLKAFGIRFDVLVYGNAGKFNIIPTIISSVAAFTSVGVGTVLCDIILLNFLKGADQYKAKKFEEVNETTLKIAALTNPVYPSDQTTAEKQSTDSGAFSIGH

Compound	IC50 [nM]
COc1ccccc1C1C(C(=O)CC(C)(C)C(=O)O)=C(O)C(=O)N1c1ccc(-c2ccsc2)cc1 (stereo not shown) [Compound I-557]	444
COc1ccc(S(=O)(=O)C2=C(O)C(=O)N(c3ccc(-c4noc(C)n4)cc3)C2C2CCCCC2)cc1 (stereo not shown) [Compound I-560]	275
Cc1ccc(-c2ccc(N3C(=O)C(O)=C(C(=O)C(C)C)C3c3cccnc3OCCCO)cc2)s1 (stereo not shown) [Compound I-568]	66
Cc1cc(-c2ccc(N3C(=O)C(O)=C(C(=O)C(C)C)C3c3cccnc3OCCCO)cc2)cs1 (stereo not shown) [Compound I-570]	70
Cc1ccc(-c2ccc(N3C(=O)C(O)=C(C(=O)CC(C)C)C3c3cccnc3C(N)=O)cc2)s1 (stereo not shown) [Compound I-572]	171
CNC(=O)c1ncccc1C1C(C(=O)CC(C)C)=C(O)C(=O)N1c1ccc(-c2ccc(C)s2)cc1 (stereo not shown) [Compound I-573]	123
Cc1ccc(-c2ccc(N3C(=O)C(O)=C(C(=O)CC(C)C)C3c3cccnc3C(=O)N(C)C)cc2)s1 (stereo not shown) [Compound I-574]	280
CCN(C)C(=O)c1ncccc1C1C(C(=O)CC(C)C)=C(O)C(=O)N1c1ccc(-c2ccc(C)s2)cc1 (stereo not shown) [Compound I-575]	252
Cc1ccc(-c2ccc(N3C(=O)C(O)=C(C(=O)CC(C)C)C3c3cccnc3C(=O)NN(C)C)cc2)s1 (stereo not shown) [Compound I-576]	237
Cc1ccc(-c2ccc(N3C(=O)C(O)=C(C(=O)CC(C)C)C3c3cccnc3C(=O)NC(C)C)cc2)s1 (stereo not shown) [Compound I-578]	386
Cc1ccc(-c2ccc(N3C(=O)C(O)=C(C(=O)CC(C)C)C3c3cccnc3C(=O)N3CCCC3)cc2)s1 (stereo not shown) [Compound I-579]	429
COCCNC(=O)c1ncccc1C1C(C(=O)CC(C)C)=C(O)C(=O)N1c1ccc(-c2ccc(C)s2)cc1 (stereo not shown) [Compound I-581]	466
COCCN(C)C(=O)c1ncccc1C1C(C(=O)CC(C)C)=C(O)C(=O)N1c1ccc(-c2ccc(C)s2)cc1 (stereo not shown) [Compound I-582]	359
Cc1cc(-c2ccc(N3C(=O)C(O)=C(C(=O)C(C)C)C3c3ccccc3C(=O)N(C)CCO)cc2)cs1 (stereo not shown) [Compound I-584]	167
Cc1ccc(-c2ccc(N3C(=O)C(O)=C(C(=O)C(C)C)C3c3ccccc3C(=O)N(C)CCO)cc2)o1 (stereo not shown) [Compound I-585]	157
COCCN(C)C(=O)c1ccccc1C1C(C(=O)C(C)C)=C(O)C(=O)N1c1ccc(-c2ccc(C)o2)cc1 (stereo not shown) [Compound I-586]	254
C/N=C1/CC(C)(C)C(=O)OC2=C1C(c1ccccc1OC)N(c1ccc(-c3ccsc3)cc1)C2=O (stereo not shown) [Compound I-587]	374
Cc1nc(-c2ccc(N3C(=O)C(O)=C(C(=O)C(C)C)C3c3ccccc3CCC(N)=O)cc2)no1 (stereo not shown) [Compound I-592]	827

Compound	IC50 [nM]
CNC(=O)CCc1ccccc1C1C(C(=O)C(C)C)=C(O)C(=O)N1c1ccc(-c2noc(C)n2)cc1 (stereo not shown) [Compound I-593]	811
Cc1nc(-c2ccc(N3C(=O)C(O)=C(C(=O)C(C)C)C3c3ccccc3CCC(=O)NC(C)C)cc2)no1 (stereo not shown) [Compound I-594]	715
Cc1ccc(-c2ccc(N3C(=O)C(O)=C(C(=O)C(C)C)C3c3ccccc3N3CCCC3=O)cc2)s1 (stereo not shown) [Compound I-597]	668
Cc1cc(-c2ccc(N3C(=O)C(O)=C(C(=O)C(C)C)C3c3ccccc3N3CCCC3=O)cc2)cs1 (stereo not shown) [Compound I-598]	785
CCCc1ccc(N2C(=O)c3[nH]nc(C(C)(C)C)c3C2c2ccccc2OC)cc1 (stereo not shown) [II-001]	104
COc1ccccc1C1c2c(C(C)(C)C)n[nH]c2C(=O)N1c1ccc(OC(C)C)cc1 (stereo not shown) [II-002]	217
COc1ccccc1C1c2c(C(C)(C)C)n[nH]c2C(=O)N1c1ccc(C(C)(C)C)cc1 (stereo not shown) [II-003]	140
COc1ccccc1C1c2c(C(C)(C)C)n[nH]c2C(=O)N1c1ccc(SC(F)(F)F)cc1 (stereo not shown) [II-004]	378
CC(C)(C)c1n[nH]c2c1C(c1cccc3c1OCO3)N(c1ccc(-c3ccon3)cc1)C2=O (stereo not shown) [II-006]	245
COc1ccccc1C1c2c(C(C)(C)COC(C)=O)n[nH]c2C(=O)N1c1ccc(SC)cc1 (stereo not shown) [II-010]	134
COc1ccccc1C1c2c(C(C)(C)CO)n[nH]c2C(=O)N1c1ccc(N(C)C)cc1 (stereo not shown) [II-011]	319
Cc1cc(-c2ccc(N3C(=O)c4[nH]nc(C(C)(C)C)c4C3c3ccccc3OCCO)cc2)on1 (stereo not shown) [II-015]	87
Cc1noc(-c2ccc(N3C(=O)c4[nH]nc(C(C)(C)C)c4C3c3ccccc3OCCO)cc2)n1 (stereo not shown) [II-016]	158
COCCOc1ccccc1C1c2c(C(C)(C)C)n[nH]c2C(=O)N1c1ccc(-c2nc(C)no2)cc1 (stereo not shown) [II-024]	62
CC(C)(C)c1n[nH]c2c1C(c1ccccc1OCC(=O)O)N(c1ccc(-c3ccon3)cc1)C2=O (stereo not shown) [II-029]	90
CN(C)CCOc1ccccc1C1c2c(C(C)(C)C)n[nH]c2C(=O)N1c1ccc(-c2ccon2)cc1 (stereo not shown) [II-030]	128
COCCOc1ncccc1C1c2c(C(C)(C)C)n[nH]c2C(=O)N1c1ccc(-c2ccon2)cc1 (stereo not shown) [II-033]	117
CC(C)(C)c1n[nH]c2c1C(c1cccnc1OCCO)N(c1ccc(-c3ccon3)cc1)C2=O (stereo not shown) [II-036]	231

The remaining molecules from weak to strong by IC50, led by results:

IC50 [nM]	Compound
62	COc1ncccc1C1c2c(C(C)(C)C)n[nH]c2C(=O)N1c1ccc(SC)cc1 (stereo not shown) [II-007]
61	CC(C)C(=O)C1=C(O)C(=O)N(c2ccc(-c3ccoc3)cc2)C1c1cccnc1OCCCO (stereo not shown) [Compound I-566]
60	COCCCOc1ncccc1C1C(C(=O)C(C)C)=C(O)C(=O)N1c1ccc(-c2csc(C)c2)cc1 (stereo not shown) [Compound I-571]
57	COCCCOc1ncccc1C1C(C(=O)C(C)C)=C(O)C(=O)N1c1ccc(-c2ccoc2)cc1 (stereo not shown) [Compound I-567]
54	COc1ccccc1C1c2c(C(C)(C)CO)n[nH]c2C(=O)N1c1ccc(SC)cc1 (stereo not shown) [II-009]
54	Cc1nc(-c2ccc(N3C(=O)c4[nH]nc(C(C)(C)C)c4C3c3ccccc3OCCO)cc2)no1 (stereo not shown) [II-017]
47	Cc1ccc(-c2ccc(N3C(=O)C(O)=C(C(=O)CC(C)C)C3c3cccnc3C(=O)NCC#N)cc2)s1 (stereo not shown) [Compound I-577]
46	COCCOc1ncccc1C1c2c(C(C)(C)C)n[nH]c2C(=O)N1c1ccc(SC)cc1 (stereo not shown) [II-034]
42	COCCOc1ccccc1C1C(S(=O)(=O)C(C)C)=C(O)C(=O)N1c1ccc(-c2ccsc2)cc1 (stereo not shown) [Compound I-563]
40	CSc1ccccc1C1C(C(=O)C(C)C)=C(O)C(=O)N1c1ccc(-c2csc(C)c2)cc1 (stereo not shown) [Compound I-559]
35	COCCCOc1ncccc1C1C(C(=O)C(C)C)=C(O)C(=O)N1c1ccc(-c2ccc(C)s2)cc1 (stereo not shown) [Compound I-569]
32	CSc1ccc(N2C(=O)C(O)=C(C(=O)C(C)C)C2c2ccccc2OCC2CC2)cc1 (stereo not shown) [Compound I-589]
31	CSc1ccc(N2C(=O)C(O)=C(C(=O)C(C)C)C2c2ccccc2OCC2CCOCC2)cc1 (stereo not shown) [Compound I-591]
29	CC(C)C(=O)C1=C(O)C(=O)N(c2ccc(-c3ccon3)cc2)C1c1ccccc1OCC1CC1 (stereo not shown) [Compound I-588]
28	CC(C)C(=O)C1=C(O)C(=O)N(c2ccc(-c3ccon3)cc2)C1c1ccccc1OCC1CCOCC1 (stereo not shown) [Compound I-590]
23	COCCOc1ccccc1C1c2c(C(C)(C)C)n[nH]c2C(=O)N1c1ccc(SC)cc1 (stereo not shown) [II-026]
22	COCCOc1ccccc1C1c2c(C(C)(C)C)n[nH]c2C(=O)N1c1ccc(-c2ccon2)cc1 (stereo not shown) [II-018]
21	CC(C)Oc1ccccc1C1c2c(C(C)(C)C)n[nH]c2C(=O)N1c1ccc(-c2ccon2)cc1 (stereo not shown) [II-019]
19	CSc1ccc(N2C(=O)c3[nH]nc(C(C)(C)C)c3C2c2ccccc2OCCO)cc1 (stereo not shown) [II-013]

IC50 [nM]	Compound
18	CC(C)C(=O)C1=C(O)C(=O)N(c2ccc(-c3ccsc3)cc2)C1c1cccnc1OCCCO (stereo not shown) [Compound I-564]
18	CN(C)CCOc1ccccc1C1c2c(C(C)(C)C)n[nH]c2C(=O)N1c1ccc(-c2ccsc2)cc1 (stereo not shown) [II-031]
17	CC(C)(C)c1n[nH]c2c1C(c1ccccc1OCCO)N(c1ccc(-c3nccs3)cc1)C2=O (stereo not shown) [II-014]
15	COCCOc1ccccc1C1c2c(C(C)(C)C)n[nH]c2C(=O)N1c1ccc(-c2noc(C)n2)cc1 (stereo not shown) [II-025]
14	COC(=O)COc1ccccc1C1c2c(C(C)(C)C)n[nH]c2C(=O)N1c1ccc(-c2ccon2)cc1 (stereo not shown) [II-028]
14	COCCOc1ncccc1C1c2c(C(C)(C)C)n[nH]c2C(=O)N1c1ccc(-c2ccoc2)cc1 (stereo not shown) [II-038]
13	COCCCOc1ncccc1C1C(C(=O)C(C)C)=C(O)C(=O)N1c1ccc(-c2ccsc2)cc1 (stereo not shown) [Compound I-565]
10	Cc1ccc(-c2ccc(N3C(=O)C(O)=C(C(=O)CC(C)C)C3c3cccnc3C(=O)NCCN(C)C)cc2)s1 (stereo not shown) [Compound I-583]
9	COC(=O)COc1ccccc1C1c2c(C(C)(C)C)n[nH]c2C(=O)N1c1ccc(-c2cccs2)cc1 (stereo not shown) [II-021]
8	CSc1ccccc1C1C(C(=O)C(C)C)=C(O)C(=O)N1c1ccc(-c2ccsc2)cc1 (stereo not shown) [Compound I-558]
8	COC(=O)COc1ccccc1C1c2c(C(C)(C)C)n[nH]c2C(=O)N1c1ccc(-c2ccsc2)cc1 (stereo not shown) [II-020]
8	COCCOc1ccccc1C1c2c(C(C)(C)C)n[nH]c2C(=O)N1c1ccc(-c2ccco2)cc1 (stereo not shown) [II-027]
8	COCCOc1ncccc1C1c2c(C(C)(C)C)n[nH]c2C(=O)N1c1ccc(-c2ccco2)cc1 (stereo not shown) [II-037]
6	COCCOc1ncccc1C1c2c(C(C)(C)C)n[nH]c2C(=O)N1c1ccc(-c2ccsc2)cc1 (stereo not shown) [II-032]
6	COCCOc1ncccc1C1c2c(C(C)(C)C)n[nH]c2C(=O)N1c1ccc(-c2cccs2)cc1 (stereo not shown) [II-035]
4	CC(C)(C)c1n[nH]c2c1C(c1ccccc1OCCO)N(c1ccc(-c3cccs3)cc1)C2=O (stereo not shown) [II-012]
4	CC(C)(C)c1n[nH]c2c1C(c1ccccc1OCC(=O)O)N(c1ccc(-c3cccs3)cc1)C2=O (stereo not shown) [II-022]
4	CC(C)(C)c1n[nH]c2c1C(c1ccccc1OCC(=O)O)N(c1ccc(-c3ccsc3)cc1)C2=O (stereo not shown) [II-023]
